According to US11643424B2, “Cardiopathy-reducing phosphodiester lipids” (Signpath Pharma, Inc., priority 2018, dated 2023):

Assays:
AV block = assay: Drug-induced AV block: intravenous Fingolimod and/or verapamil, without and with oral 14:0 lyso PG (ECG, PR intervals); assay type: in vivo, guinea pigs
Method: To test this hypothesis, guinea pigs were instrumented (subcutaneous ECG leads) and exposed to increasing intravenous doses of Fingolimod and/or verapamil, without and with an oral dose of 14:0 lyso PG. ECG signals were recorded continuously for 2 hours post-dose for the AV blockers Fingolimod and verapamil. PR intervals were measured following the infusion of Fingolimod. Measurements of PR were stopped when the P wave disconnected from the QRS complexes, indicating 3rd degree AV block.
Guinea pigs exposed to an intravenous infusion of Fingolimod alone transitioned to 1st degree AV block as of a dose of 15 μg/kg, which rapidly progressed to a Mobitz Type-1, 2nd-degree AV block at 20 μg/kg, and finally progressed to 3rd degree AV block as of a dose of 23 μg/kg.
The cohort of guinea pigs exposed to verapamil received an i.v. injection of 0.5 mg/kg, followed 60 minutes later by an intravenous infusion of Fingolimod. A 1st-degree AV block appeared at a dose of 7 μg/kg, changed to a Mobitz-Type-1 2nd degree AV block at 10 μg/kg, and transitioned to 3rd-degree dissociation between P waves and QRS complexes as of 45 μg/kg.
The third cohort of animals received an initial oral gavage of 1.0 mg/kg 14:0 lyso PG, followed 60 minutes later by an intravenous dose of 0.5 mg/kg verapamil. Sixty (60) minutes post-verapamil, Fingolimod was infused into the animals as described above. […] A Mobitz-Type-2 AV block appeared in 2 out of 6 animals with P-QRS dissociation observed at a dose of 51 μg/kg in those two animals, and at 300 μg/kg in the rest of the animals in the cohort.

QTc prolongation = QTc prolongation by increasing oral doses of moxifloxacin, without or with concomitant 14:0 lyso PG
K+ current = settings: cited from earlier work
[1] = oral 1.0 mg/kg 14:0 lyso PG, then verapamil 0.5 mg/kg i.v., then Fingolimod infusion

| Compound | Fingolimod dose at P-QRS dissociation, rest of the animals in the cohort (AV block; [1]) [µg/kg] | animals in which a Mobitz-Type-2 AV block appeared (AV block; [1]) | Fingolimod dose at P-QRS dissociation, the two animals with Mobitz-Type-2 AV block (AV block; oral 1.0 mg/kg 14:0 lyso PG, then verapamil 0.5 mg/kg i.v., then Fingolimod infusion, 2 out of 6 animals) [µg/kg] | Fingolimod dose at which 1st-degree AV block appeared (AV block; oral gavage 1.0 mg/kg 14:0 lyso PG, 60 min later i.v. verapamil 0.5 mg/kg, 60 min later Fingolimod infusion) [µg/kg] | shift in the QTc-dose response of Moxifloxacin (QTc prolongation; concomitant dose of 14:0 lyso PG) | changes in QTc (QTc prolongation; concomitant dose of 14:0 lyso PG with moxifloxacin) | reduction of K+ current (K+ current) [%] |
| --- | --- | --- | --- | --- | --- | --- | --- |
| CCCCCCCCCCCCCC(=O)OC[C@@H](O)COP(=O)(O)OCC(O)CO (mixture of isomers) [14:0 lyso PG, 1-myristoyl-2-hydroxy-sn-glycero-3-phospho-(1′-rac-glycerol)] | 300 | 2 out of 6 | 51 | 200 | statistically significant right-shift | no, or very little, changes in QTc |  |
| CCCCc1oc2ccc(NS(C)(=O)=O)cc2c1C(=O)c1ccc(OCCCN(CCCC)CCCC)cc1 [Dronedarone] |  |  |  |  |  |  | 69 |
